Assay [1] has as its system Aβ 1-40 amyloid fibrils. Description: Modified Congo red-Aβ spectrophotometric assay: dose-dependent disaggregation of fibrillized Aβ 1-40 (overnight incubation). The note with it: overnight (~18 hours) at 37°C. Format: biochemical. As to the method: In this study, a Congo red-Aβ spectrophotometric assay (Klunk et al., Anal. Biochem. 266:66-76, 1999) was modified to determine the effectiveness of polyhydroxylated aromatic compounds on the disaggregation of pre-formed Aβ 1-40 amyloid fibrils. For this assay, 1 mg of Aβ 1-40 (Bachem) was incubated for 4 days in distilled water at 37°C to spontaneously produce amyloid fibrils. 25pM of fibrillized Aβ 1-40 was then incubated in triplicate with various test compounds for 3 days at 37°C in Tris-buffered saline (TBS)(100 mM Tris; 50 mM NaCl; pH 7.0, with 0.02% sodium azide), at an Aβ:compound weight ratio of 2:1. Following incubation, 50µl of 360 µM Congo red (Sigma) in distilled water was then added to 250 µl of each incubation mixture, giving a final Aβ:Congo red molar ratio of 1:3. After 10 minutes, the absorbance at 405 nm (reference wavelength to account for the absorbance of Congo red alone at 540 nm) and 540 nm (sample absorbance where "sample" refers to Aβ alone, test compound alone, or Aβ plus test compound, all in the presence of Congo red) was determined using a Biorad Model 550 BLISA Plate Reader (Biorad, Hercules, CA, USA). The absorbance at wavelength 405 nm was automatically subtracted by the ELISA plate reader from the absorbance at wavelength 540 nm (difference is referred to as Δ absorbance)(see Klunk et al. cited above). Therefore, the Δ absorbance reading at 540 nm was proportional to the amount of aggregated Aβ left in solution (Klunk et al.).
For all experiments involving test compounds, the Δ absorbance reading at 540 nm of the test compound alone (in the absence of Aβ), was always subtracted from the corresponding Δ absorbance reading at 540 nm of the test compound in the presence of Aβ. Using this modification of the method of Klunk et al., the use of a greater final concentration of Congo red, i.e. 60µM instead of 14µM, in the presence of fibrillar Aβ gave an overall absorbance at 540 nm that was always below 1.0 Absorbance Unit (AU), and well within the linear absorbance range.
In this study, the potential dose-dependent effects of tannic acid and gallic acid on the disaggregation of fibrillized Aβ 1-40 was assessed. In this experiment, the modified Congo red-Aβ spectrophotometric assay (Klunk et al, Anal. Biochem. 266:66-76, 1999) was used as described above (i.e. Example 4). However, in this specific experiment increasing amounts of tannic acid or gallic acid (i.e. 25µg/ml, 50µg/ml, 75µg/ml and 100µg/ml) were tested following an overnight (~18 hours) incubation at 37°C in the presence of 25pM of Aβ 1.40 (Bachem).

In assay [2] the test system is Aβ 1-40 amyloid fibrils. Description: Thioflavin T fluorometry: dose-dependent disassembly/disruption of pre-formed Aβ 1-40 fibrils. Format: biochemical. The note with it: 25 µM pre-fibrillized Aβ 1-40, overnight (~18 hours) at 37°C. The text has this: A previously described method of measuring amyloid fibril formation utilizing Thioflavin T fluorometry (H Naiki et al., Lab. Invest. 65:104-110, 1991; H Levine III, Protein Sci. 2:404-410, 1993; H Levine III, Amyloid: Int. J. Exp. Clin. Invest. 2:1-6, 1995; H Naiki and K. Nakakuki, Lab. Invest. 74:374-383, 1996) was employed to identify potential therapeutic compounds capable of causing a disassembly/disruption of Alzheimer's Aβ 1-42 amyloid fibrils. Thioflavin T is known to bind to fibrillar amyloid proteins, and an increase in fluorescence correlates with an increase in amyloid fibril formation, whereas a decrease in fluorescence correlates with a decrease in amyloid fibrils due to disassembly and/or disruption. The Alzheimer's Aβ protein (1-42) when placed in solution, such as distilled water, tends to spontaneously form amyloid fibrils. Using this sensitive assay, any decreases or increases in fluorescence was previously shown to correlate with a decrease or increase in the amount of amyloid fibrils (see the documents cited above), allowing one to identify and quantitate the extent of potential inhibitors and/or enhancers of Alzheimer's Aβ 1-42 amyloid fibrils.
To assess the effects of each compound on potential disassembly/ disruption of preformed Aβ 1-42 fibrils, 50 µl of Aβ 1-42 with or without test compounds (described above) were added to 1.2 ml of 100µM Thioflavin T (Sigma) in 50mM NaH2PO4 (pH 6.0) for fluorometry readings. […] Fluorescence emission at 482 nm was measured on a Turner instrument-model 450 fluorometer at an excitation wavelength of 450 nm. For each determination, the fluorometer was calibrated by zeroing in the presence of the Thioflavin T reagent alone, and by setting the 50 ng/ml riboflavin (Sigma Chemical Co., St. Louis, MO) in the Thioflavin T reagent to 1800 fluorescence units. All fluorescence determinations were based on these references and any fluorescence given off by any of the compounds in the presence of the Thioflavin T reagent was always subtracted from all pertinent readings.
For all fibrillogenesis studies utilizing Thioflavin T fluorometry, as disclosed herein, comparisons of amyloid protein in the presence or absence of test compounds were based on paired Student's t tests with data shown as the mean of triplicate measurements ± standard deviation.
In this study, the potential dose-dependent effects of tannic acid and gallic acid on disassembly/ disruption of pre-formed Aβ 1-40 was assessed. In this experiment, 1 mg of Aβ 1-40 (Bachem Inc., Torrance, CA, USA; Lot # T-20824) was dissolved in 1.0 ml of double distilled water (1 mg/ml solution) and incubated for 4 days at 37°C to spontaneously induce fibril formation. 25 µM of pre-fibrillized Aβ 1-40 was then incubated overnight (~18 hours) at 37°C, in the absence or presence of increasing amounts (25µg/ml, 50µg/ml, 75µg/ml and 100µg/ml) of tannic acid or gallic acid (each in the presence of 150 mM Tris HCl, 10 mM NaCl, pH 7.0, with 0.02% sodium azide). The Aβ:compound weight ratios were therefore 4:1, 2:1, 4:3, and 1:1, respectively, 50 µl aliquots were then added to 1.2 ml of 100µM Thioflavin T (Sigma) in 50mM NaH2PO4 (pH 6.0) for fluorometry readings as described in Example 1 above.

Where [3] appears, read: w/w ratio 2:1 (50µg/ml compound).
Setting [4] is: w/w ratio 4:1 (25µg/ml compound).
Setting [5] is: w/w ratio 4:3 (75µg/ml compound).
[6] abbreviates: Aβ:compound w/w ratio 1:1 (100µg/ml compound).
Setting [7] is: Aβ:compound w/w ratio 2:1 (50µg/ml compound).
Where [8] appears, read: Aβ:compound w/w ratio 4:1 (25µg/ml compound).
The mark [9] stands for this setting: Aβ:compound w/w ratio 4:3 (75µg/ml compound).

The structures appear in SMILES notation.

Take `O=C(O)c1cc(O)c(O)c(O)c1` [Gallic acid, gallic acid]: the results for the “Decrease in absorbance, %, at the Aβ 1-40:compound w/w ratios given” value in assay [1] (setting [3]), in assay [1] (setting [4]) and in assay [1] (setting [5]) were 22 ± 4.0%, 17 ± 9.5% and 30 ± 6.0%, respectively. In addition, the “Fluorescence inhibition, %, at the Aβ 1.40:compound w/wratios given” value in assay [2] (setting [6]) is on record as 45 ± 4.1%; in assay [2] (setting [7]) it was 22 ± 3.3%; in assay [2] (setting [8]), 14 ± 8.2 %; in assay [2] (setting [9]), 34 ± 3.6%.

Turning to `O=C(OC[C@H]1O[C@@H](OC(=O)c2cc(O)c(O)c(OC(=O)c3cc(O)c(O)c(O)c3)c2)[C@H](OC(=O)c2cc(O)c(O)c(OC(=O)c3cc(O)c(O)c(O)c3)c2)[C@@H](OC(=O)c2cc(O)c(O)c(OC(=O)c3cc(O)c(O)c(O)c3)c2)[C@@H]1OC(=O)c1cc(O)c(O)c(OC(=O)c2cc(O)c(O)c(O)c2)c1)c1cc(O)c(O)c(OC(=O)c2cc(O)c(O)c(O)c2)c1` [Tannic acid, tannic acid], the “Decrease in absorbance, %, at the Aβ 1-40:compound w/w ratios given” value in assay [1] (w/w ratio 1:1 (100µg/ml compound)) came to 61 ± 11.1%; in assay [1] (setting [3]), 48 ± 6.8%; in assay [1] (setting [4]) it was 42 ± 5.2%; in assay [1] (setting [5]), 59 ± 6.4%. Moreover, the “Fluorescence inhibition, %, at the Aβ 1.40:compound w/wratios given” value is given as 53 ± 4.2% in assay [2] (setting [6]), 42 ± 2.8% in assay [2] (setting [7]), 31 ± 4.8% in assay [2] (setting [8]) and 49 ± 3.7% in assay [2] (setting [9]).

(Values after patent publication EP1808169B1, “Polyhydroxylated aromatic compounds for the treatment of amyloidosis and alpha-synuclein fibril diseases” (priority 1999, dated 2001).)
